From patent US9192601B2, “Methods for enhancing muscle performance and tone” (Salk Institute for Biological Studies, priority 2006, dated 2015)

What was measured:
AMPK = assay: Western blot of phospho-AMPK in quadriceps; type: in vivo, mouse; conditions: AICAR 500 mg/kg/day, 4 weeks, quadriceps
Text: Exercise training is known to activate kinases, such as p44/42 MAPK and AMPK, which regulate gene expression in skeletal muscle (Chen et al., Diabetes, 52:2205-12, 2003; Goodyear et al., Am. J. Physiol, 271:[…]-8, 1996). AMPK affects skeletal muscle gene expression and oxidative metabolism (Chen et al., Diabetes. 52: 2205-12, 2003, Reznick et al., J. Physiol. 574: 33-9, 2006). The interaction between exercise-regulated kinases and PPARδ signaling is described in this Example. The levels of phospho-p44/42 MAPK and phospho-AMPK a subunit and total AMPK were determined in protein homogenates of quadriceps muscle by Western blot. Antibodies specific for phospho-p44/42 MAPK, phospho- and total-AMPK αl antibodies were obtained from Cell Signaling. The phospho-specific AMPK αl antibody recognizes the key activating threonine in the activation loop.

C57B/6J mice = assay: Treadmill running endurance test; type: in vivo, mouse; conditions: 500 mg/kg/day, 4 weeks, no exercise
Procedure: Mice were acclimated to moderate treadmill running (10 m/min for 15 min) every other day for 1 week. After acclimation, basal running endurance was determined by placing each mouse on a treadmill, gradually increasing the speed from 0 to 15 m/min, and maintaining 15 m/min until the mouse was exhausted. The time and distance run until exhaustion were recorded as the basal endurance values (Week 0).
Treatments were administered orally.
Expression of biomarkers characteristic of an oxidative phenotype in skeletal muscle, typically, has been correlated with increased oxidative performance (e.g., increased running endurance) of such skeletal muscle. […] Accordingly, to determine the functional effects of ligand, age and weight matched cohorts of treated and control mice were subjected to an endurance treadmill performance test before (week 0) and after (week 5) treatment.
In addition to affecting the contractile apparatus of skeletal muscle, exercise training also increases skeletal muscle mitochondrial density (e.g., Freyssenet et al., Arch. Physiol. Biochem., 104(2): 129-141, 1996). […] Mice in all groups were acclimated to moderate treadmill running and basal running endurance was determined as described in Example 1. Thereafter, mice in the exercise-trained groups received four weeks (5 days/week) of exercise training on a treadmill inclined at 5 degrees. […] At the end of four weeks, all exercise-trained mice were running for 50 min/day at 18 m/min. […] Unless otherwise noted, V, GW, Tr and GW+Tr subjects described in this and the examples below were similarly treated. At the end of the drug treatment and/or training protocol (Week 5) 6 mice per group were subjected to the running test. […] RNA was prepared real time quantitative PCR performed as described in Example 1.
At the end of the drug treatment and/or training protocol (Week 5) 6 mice per group were subjected to the running test.
At the end of the drug treatment and/or training protocol (Week 5), running endurance of six mice per group was determined in the same manner as was basal running endurance. […] on three mice in each group to confirm that changes observed in the skeletal muscle were not due to the acute run, but were related to the exercise training.

quadriceps muscle = assay: Microarray analysis of quadriceps (Affymetrix mouse genome 430A 2.0); type: in vivo
[1] = test system: myoglobin, UCP3, cytochrome c (CYCS) and SCDl; assay: Western blotting of oxidative biomarkers in quadriceps; type: in vivo, mouse; conditions: AICAR 500 mg/kg/day, 4 weeks, quadriceps
Procedure: In addition to gene expression, protein expression was determined for selective oxidative biomarkers including myoglobin, UCP3, cytochrome c (CYCS) and SCDl, using Western blotting. Protein homogenates were prepared from quadriceps muscle, separated by SDS polyacrylamide gel electrophoresis, transferred to blotting membrane and probed with antibodies specific for myoglobin (Dako), UCP3 (Affinity Bioreagents), cytochrome c (Santacruz) SCDl (Santacruz), and, as a loading control, tubulin (Sigma).

Oxygen consumption = type: in vivo, mouse; conditions: AICAR 500 mg/kg/day, 4 weeks
[2] = AICAR alone, untrained mice, quadriceps

NC(=O)c1ncn([C@@H]2O[C@H](CO)[C@@H](O)[C@H]2O)c1N [AICAR, 5-amino-4-imidazolecarboxamide riboside]
phosphorylation of AMPK a subunit and acetyl CoA carboxylase (ACC) (AMPK): increased phosphorylation | ran further than vehicle-treated mice (distance) (C57B/6J mice): ~44% | ran longer than vehicle-treated mice (time) (C57B/6J mice): ~23% | Aacs expression (quadriceps muscle; [2]): 1.875 | Acly expression (quadriceps muscle; [2]): 1.687 | Adipoq expression (quadriceps muscle; [2]): 2.043 | Ak2 expression (quadriceps muscle; [2]): 1.486 | Apoe expression (quadriceps muscle; [2]): 1.403 | Cd36 expression (quadriceps muscle; [2]): 1.386 | Ces3 expression (quadriceps muscle; [2]): 1.516 | Cidea expression (quadriceps muscle; [2]): 5.021 | Dgat2 expression (quadriceps muscle; [2]): 2.034 | Elovl6 expression (quadriceps muscle; [2]): 2.134 | Fabp4 expression (quadriceps muscle; [2]): 1.709 | Fasn expression (quadriceps muscle; [2]): 2.098 | Lep expression (quadriceps muscle; [2]): 2.047 | Lipe expression (quadriceps muscle; [2]): 1.64 | Lpl expression (quadriceps muscle; [2]): 1.386 | Mgll expression (quadriceps muscle; [2]): 1.503 | Mgst1 expression (quadriceps muscle; [2]): 1.602 | Nrip1 expression (quadriceps muscle; [2]): 1.474 | Pck1 expression (quadriceps muscle; [2]): 2.68 | Pcx expression (quadriceps muscle; [2]): 1.393 | Pdk4 expression (quadriceps muscle; [2]): 1.321 | Pparg expression (quadriceps muscle; [2]): 3.027 | Retn expression (quadriceps muscle; [2]): 1.891 | Scd1 expression (quadriceps muscle; [2]): 1.931 | Sdhd expression (quadriceps muscle; [2]): 1.529 | Sfxn1 expression (quadriceps muscle; [2]): 1.713 | Slc25a5 expression (quadriceps muscle; [2]): 1.372 | Sult1a1 expression (quadriceps muscle; [2]): 2.021 | Tspo expression (quadriceps muscle; [2]): 1.441 | Ucp1 expression (quadriceps muscle; [2]): 3.623 | Ucp3 expression (quadriceps muscle; [2]): 1.258 | number of upregulated genes linked to oxidative metabolism (quadriceps muscle; AICAR treatment alone): 32 genes | expression of UCP3 (immunoblot) [1]: increased expression | oxygen consumption (Oxygen consumption): increased
